We go through 24 compounds from patent publication US7250442B2, “Dihydroindol-2-one derivatives as steroid hormone nuclear receptor modulators” (Eli Lilly and Company, priority 2003, dated 2007).

pKi: −log10 of the molar value.

The target of the assay is T1, human MR (Homo sapiens, UniProt P08235).
T1 construct: The full length human MR gene is cloned from a human kidney or human brain cDNA library; made in house; host or cells: Sf9 insect cells (baculovirus, pAcHLT transfer vector)
T1 sequence (P08235 1-984): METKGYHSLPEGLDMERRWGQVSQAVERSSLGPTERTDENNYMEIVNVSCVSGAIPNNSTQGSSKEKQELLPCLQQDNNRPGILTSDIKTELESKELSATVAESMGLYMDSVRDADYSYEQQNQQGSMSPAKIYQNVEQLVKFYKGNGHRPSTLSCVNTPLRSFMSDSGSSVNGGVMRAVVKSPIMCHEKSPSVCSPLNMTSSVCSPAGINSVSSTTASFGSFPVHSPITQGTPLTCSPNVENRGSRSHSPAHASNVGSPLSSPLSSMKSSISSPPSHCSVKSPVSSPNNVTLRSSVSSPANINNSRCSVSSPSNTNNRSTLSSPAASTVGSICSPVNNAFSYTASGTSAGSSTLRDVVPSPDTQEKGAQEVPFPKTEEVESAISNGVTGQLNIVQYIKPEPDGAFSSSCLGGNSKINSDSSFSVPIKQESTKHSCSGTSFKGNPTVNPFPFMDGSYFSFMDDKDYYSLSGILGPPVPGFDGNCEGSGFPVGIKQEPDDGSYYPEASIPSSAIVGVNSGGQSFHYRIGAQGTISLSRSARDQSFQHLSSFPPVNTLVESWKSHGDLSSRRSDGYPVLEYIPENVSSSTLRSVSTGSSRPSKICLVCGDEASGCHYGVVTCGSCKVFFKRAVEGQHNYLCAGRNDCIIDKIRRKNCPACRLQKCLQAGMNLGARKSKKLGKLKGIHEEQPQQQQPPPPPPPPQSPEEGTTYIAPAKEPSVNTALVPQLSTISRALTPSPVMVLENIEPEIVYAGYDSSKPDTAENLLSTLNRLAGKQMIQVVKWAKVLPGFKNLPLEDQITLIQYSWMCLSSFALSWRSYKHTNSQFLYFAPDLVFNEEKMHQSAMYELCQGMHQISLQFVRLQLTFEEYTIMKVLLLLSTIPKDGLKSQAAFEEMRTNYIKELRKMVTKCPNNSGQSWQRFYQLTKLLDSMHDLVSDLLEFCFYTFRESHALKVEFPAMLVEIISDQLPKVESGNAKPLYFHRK
As to the kind of experiment: Mineralocorticoid Receptor Binding Assay ([3H]-aldosterone displacement). Particulars: full length human MR expressed in Sf9 cells, 0.5 nM [3H]-aldosterone. In a few lines:
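Full-length human MR expressed in Sf9 cells; lysate (20-25 μg protein) incubated with 0.5 nM [3H]-aldosterone and test compound in molybdate/Tris/phosphate/glycerol buffer pH 7.5, 16 h at 4 °C. Bound ligand measured by filtration and scintillation counting; IC50 converted to Ki via Cheng-Prusoff.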
The compound `Cc1cc(C2(c3cc(C)c(O)c(C)c3)C(=O)N(Cc3ccccc3Cl)c3ccccc32)cc(C)c1N` (stereo not drawn) [Example 35, 3-(4-Amino-3,5-dimethyl-phenyl)-1-(2-chloro-benzyl)-3-(4-hydroxy-3,5-dimethyl-phenyl)-1,3-dihydro-indol-2-one] gave a pKi of at least 6.30. `Cc1cc(C2(c3cc(C)c(O)c(C)c3)C(=O)N(Cc3noc(-c4ccco4)n3)c3ccccc32)cc(C)c1O` [Example 87, 1-(5-Furan-2-yl-[1,2,4]oxadiazol-3-ylmethyl)-3,3-bis-(4-hydroxy-3,5-dimethyl-phenyl)-1,3-dihydro-indol-2-one]: the negative-log Ki (pKi) was at least 6.30. To `Cc1cc(C2(c3cc(C)c(O)c(C)c3)C(=O)N(Cc3c(Cl)cccc3Cl)c3ccccc32)cc(C)c1O` [Example 113, 1-(2,6-Dichloro-benzyl)-3,3-bis-(4-hydroxy-3,5-dimethyl-phenyl)-1,3-dihydro-indol-2-one] belongs at least 6.30; to `COc1cccc(CN2C(=O)C(c3cc(C)c(O)c(C)c3)(c3cc(C)c(O)c(C)c3)c3ccccc32)c1` [Example 56, 3,3-Bis-(4-hydroxy-3,5-dimethyl-phenyl)-1-(3-methoxy-benzyl)-1,3-dihydro-indol-2-one], at least 6.30; to `Cc1cc(C2(c3cc(C)c(O)c(C)c3)C(=O)N(CCC3CCCCC3)c3ccccc32)cc(C)c1O` [Example 110, 1-(2-Cyclohexyl-ethyl)-3,3-bis-(4-hydroxy-3,5-dimethyl-phenyl)-1,3-dihydro-indol-2-one], at least 6.30. `CCOC(=O)CN1C(=O)C(c2cc(C)c(O)c(C)c2)(c2cc(C)c(O)c(C)c2)c2ccccc21` [Example 109, [3,3-Bis-(4-hydroxy-3,5-dimethyl-phenyl)-2-oxo-2,3-dihydro-indol-1-yl]-acetic acid ethyl ester]: the negative logarithm of the Ki (pKi) is at least 6.30. To `C#CCN1C(=O)C(c2cc(C)c(O)c(C)c2)(c2cc(C)c(O)c(C)c2)c2ccccc21` [Example 101, 3,3-Bis-(4-hydroxy-3,5-dimethyl-phenyl)-1-prop-2-ynyl-1,3-dihydro-indol-2-one] belongs at least 6.30; to `Cc1cc(C2(c3cc(C)c(O)c(C)c3)C(=O)N(Cc3ccc(Cl)cc3F)c3ccccc32)cc(C)c1O` [Example 83, 1-(4-Chloro-2-fluoro-benzyl)-3,3-bis-(4-hydroxy-3,5-dimethyl-phenyl)-1,3-dihydro-indol-2-one], at least 6.30. Next, `COC(=O)c1cccc(-c2noc(CN3C(=O)C(c4cc(C)c(O)c(C)c4)(c4cc(C)c(O)c(C)c4)c4ccccc43)n2)c1` [Example 141, 3-{5-[3,3-Bis-(4-hydroxy-3,5-dimethyl-phenyl)-2-oxo-2,3-dihydro-indol-1-ylmethyl]-[1,2,4]oxadiazol-3-yl}-benzoic acid methyl ester]: at least 6.30; `Cc1ccc2c(c1)C(c1cc(C)c(O)c(C)c1)(c1cc(C)c(O)c(C)c1)C(=O)N2Cc1csc(-c2ccccc2)n1` [Example 92, 3,3-Bis-(4-hydroxy-3,5-dimethyl-phenyl)-5-methyl-1-(2-phenyl-thiazol-4-ylmethyl)-1,3-dihydro-indol-2-one]: at least 6.30.

Consider `CCCCCN1C(=O)C(c2cc(C)c(O)c(C)c2)(c2cc(C)c(O)c(C)c2)c2ccccc21` [Example 77, 3,3-Bis-(4-hydroxy-3,5-dimethyl-phenyl)-1-pentyl-1,3-dihydro-indol-2-one], for which the negative-log Ki (pKi) was at least 6.30.

As for `Cc1cc(C2(c3cc(C)c(O)c(C)c3)C(=O)N(Cc3ccc(OC(F)(F)F)cc3)c3ccccc32)cc(C)c1O` [Example 67, 3,3-Bis-(4-hydroxy-3,5-dimethyl-phenyl)-1-(4-trifluoromethoxy-benzyl)-1,3-dihydro-indol-2-one], the pKi is at least 6.30. The compound `Cc1ccccc1N1C(=O)C(c2cc(C)c(O)c(C)c2)(c2cc(C)c(O)c(C)c2)c2ccccc21` [Example 132, 3,3-Bis-(4-hydroxy-3,5-dimethyl-phenyl)-1-o-tolyl-1,3-dihydro-indo 1-2-one] had a negative-log Ki (pKi) of at least 6.30. Next, `CCOc1cccc(N2C(=O)C(c3cc(C)c(O)c(C)c3)(c3cc(C)c(O)c(C)c3)c3ccccc32)c1` [Example 137, 1-(3-Ethoxy-phenyl)-3,3-bis-(4-hydroxy-3,5-dimethyl-phenyl)-1,3-dihydro-indol-2-one]: at least 6.30; `O=C1N(Cc2ccccc2)c2ccccc2C1(c1cc(Cl)c(O)c(Cl)c1)c1cc(Cl)c(O)c(Cl)c1` [Example 14, 1-Benzyl-3,3-bis-(3,5-dichloro-4-hydroxy-phenyl)-1,3-dihydro-indol-2-one]: at least 6.00. Next, `Cc1cc(C2(c3cc(C)c(O)c(C)c3)C(=O)N(c3cccc(C(F)(F)F)c3)c3ccccc32)cc(C)c1O` [Example 127, 3,3-Bis-(4-hydroxy-3,5-dimethyl-phenyl)-1-(3-trifluoromethyl-phenyl)-1,3-dihydro-indol-2-one]: at least 6.30.

In turn, `Cc1cc(C2(c3cc(C)c(O)c(C)c3)C(=O)N(Cc3ccccc3Cl)c3ccccc32)cc(C)c1O` [Example 11, 1-(2-Chloro-benzyl)-3,3-bis-(4-hydroxy-3,5-dimethyl-phenyl)-1,3-dihydro-indol-2-one] gave a negative logarithm of the Ki (pKi) of at least 6.30. Next, `Cc1cc(C2(c3cc(C)c(O)c(C)c3)C(=O)N(Cc3c(C)noc3C)c3ccccc32)cc(C)c1O` [Example 9, 1-(3,5-Dimethyl-isoxazol-4-ylmethyl)-3,3-bis-(4-hydroxy-3,5-dimethyl-phenyl)-1,3-dihydro-indol-2-one]: at least 6.30; `Cc1cc(C2(c3cc(C)c(O)c(C)c3)C(=O)N(Cc3ccccc3F)c3ccccc32)cc(C)c1O` [Example 50, 1-(2-Fluoro-benzyl)-3,3-bis-(4-hydroxy-3,5-dimethyl-phenyl)-1,3-dihydro-indol-2-one]: at least 6.30; `Cc1cc(C2(c3cc(C)c(O)c(C)c3)C(=O)N(Cc3cccc(OC(F)(F)F)c3)c3ccccc32)cc(C)c1O` [Example 8, 3,3-Bis-(4-hydroxy-3,5-dimethyl-phenyl)-1-(3-trifluoromethoxy-benzyl)-1,3-dihydro-indol-2-one]: at least 6.30. Next, `Cc1cc(C2(c3cc(C)c(O)c(C)c3)C(=O)N(c3ccccc3)c3ccccc32)cc(C)c1O` [Example 126, 3,3-Bis-(4-hydroxy-3,5-dimethyl-phenyl)-1-phenyl-1,3-dihydro-indol-2-one]: at least 6.30; `COc1ccc(-c2nc(CN3C(=O)C(c4cc(C)c(O)c(C)c4)(c4cc(C)c(O)c(C)c4)c4ccccc43)no2)cc1` [Example 99, 3,3-Bis-(4-hydroxy-3,5-dimethyl-phenyl)-1-[5-(4-methoxy-phenyl)-[1,2,4]oxadiazol-3-ylmethyl]-1,3-dihydro-indol-2-one]: at least 6.30. For `COc1ccc(N2C(=O)C(c3cc(C)c(O)c(C)c3)(c3cc(C)c(O)c(C)c3)c3ccccc32)cc1OC` [Example 140, 1-(3,4-Dimethoxy-phenyl)-3,3-bis-(4-hydroxy-3,5-dimethyl-phenyl)-1,3-dihydro-indol-2-one], the pKi is at least 6.30. In turn, `Cc1cc(C2(c3cc(C)c(O)c(C)c3)C(=O)N(c3cccc(F)c3)c3ccccc32)cc(C)c1O` [Example 130, 1-(3-Fluoro-phenyl)-3,3-bis-(4-hydroxy-3,5-dimethyl-phenyl)-1,3-dihydro-indol-2-one] gave a pKi of at least 6.30.
